Results taken from the supplement of paper PMC8671470.

Columns and labels:
Assay in all cases: cell viability (% survival relative to DMSO control, bortezomib = 0%); higher = less cytotoxic
Details in all cases: 72 h
KU-812 = tested on: KU-812
Outline: (§1)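 Fifteen myeloid leukaemia cell lines (10 AML, 5 CML) were seeded at a density titrated to the linear growth range into 384-well plates pre-printed with compounds at 1, 10, 100, 1000 or 10000 nM in duplicate. Plates were incubated for 72 h at 37 °C with 5% CO2. Viability was then read by CellTiter-Glo luminescence. Each value is percent survival averaged over the duplicates, with vehicle set to 100% and a 10 µM positive control to 0%.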

Mono-Mac-6 = tested on: Mono-Mac-6
Outline: as §1

NOMO-1 = tested on: NOMO-1
Outline: as §1

THP-1 = tested on: THP-1
Outline: as §1

Row | SMILES | cell viability (KU-812; 1 nM) | cell viability (KU-812; 10 nM) | cell viability (KU-812; 100 nM) | cell viability (KU-812; 1000 nM) | cell viability (KU-812; 10000 nM) | cell viability (Mono-Mac-6; 1 nM) | cell viability (Mono-Mac-6; 10 nM) | cell viability (Mono-Mac-6; 100 nM) | cell viability (Mono-Mac-6; 1000 nM) | cell viability (Mono-Mac-6; 10000 nM) | cell viability (NOMO-1; 1 nM) | cell viability (NOMO-1; 10 nM) | cell viability (NOMO-1; 100 nM) | cell viability (NOMO-1; 1000 nM) | cell viability (NOMO-1; 10000 nM) | cell viability (THP-1; 1 nM) | cell viability (THP-1; 10 nM) | cell viability (THP-1; 100 nM) | cell viability (THP-1; 1000 nM) | cell viability (THP-1; 10000 nM)
1 | CN(C)C(=O)n1nnnc1Cc1ccc(-c2ccccc2)cc1 | 101% | 101% | 96.5% | 77.9% | 3.07% | 95.9% | 102% | 102% | 88.6% | 0.0787% | 105% | 99.4% | 96.7% | 86.9% | 26.5% | 103% | 112% | 102% | 67.6% | 35%
2 | Cc1[nH]n(-c2ccccc2)c(=O)c1C1(C(F)(F)F)C(=O)N(c2ccccc2)C2=C1C(=O)CC(C)(C)C2 (stereo not given) | 104% | 94.3% | 97.7% | 111% | 95.3% | 115% | 98.1% | 105% | 97.1% | 101% | 104% | 94.6% | 108% | 101% | 101% | 101% | 97.5% | 93.8% | 93.2% | 92%
3 | c1ccc2nc(-c3nnc4sc(-c5cnccn5)nn34)ccc2c1 | 105% | 115% | 94.9% | 91.8% | 95.7% | 111% | 108% | 108% | 91.1% | 98.5% | 106% | 109% | 99.5% | 93.7% | 101% | 105% | 103% | 105% | 88.5% | 99.3%
4 | CC(C)(CS(=O)(=O)[O-])NC(=O)CC[N+](C)(C)CCO | 99.7% | 98.6% | 99.3% | 89.4% | 107% | 86.8% | 105% | 90.1% | 91.6% | 105% | 94.8% | 102% | 96% | 94.3% | 101% | 101% | 102% | 99.5% | 93.2% | 120%
5 | C[C@H]1O[C@H](O[C@H]2[C@H](O)[C@@H](O)[C@@H](O[C@H]3[C@H](O)[C@@H](O)C(O)O[C@@H]3CO)O[C@@H]2CO)[C@H](O)[C@@H](O)[C@@H]1N[C@H]1C=C(CO)[C@@H](O)[C@H](O)[C@H]1O (mixture of isomers) [Acarbose] | 91.8% | 94.5% | 107% | 114% | 93.9% | 101% | 95.6% | 102% | 111% | 87% | 98.1% | 97.7% | 103% | 96.1% | 88.4% | 87.6% | 107% | 96.9% | 95.1% | 97.1%
6 | CC(=O)N1CCN(c2ccc(OC[C@@H]3CO[C@@](Cn4ccnc4)(c4ccc(Cl)cc4Cl)O3)cc2)CC1 (racemic) [Ketoconazole] | 100% | 102% | 95.1% | 105% | 70.5% | 93.6% | 91.8% | 95.6% | 94% | 90.1% | 102% | 95.5% | 100% | 99.8% | 99.5% | 105% | 95.9% | 97.4% | 104% | 91.1%
7 | OC[C@H]1OC(O)C[C@@H](O)[C@@H]1O (stereo not given in full) [2-deoxyglucose] | 105% | 101% | 101% | 85.1% | 95.5% | 65.6% | 99.3% | 102% | 89.4% | 99.2% | 112% | 100% | 107% | 87.9% | 93.6% | 92% | 96.1% | 105% | 86.9% | 100%
8 | O=C(C(=O)c1ccc(Br)cc1)c1ccc(Br)cc1 [4,4'-Dibromobenzil] | 86.9% | 98.3% | 104% | 103% | 91.5% | 109% | 101% | 94% | 109% | 97.9% | 95.6% | 110% | 99.8% | 104% | 96.2% | 98.2% | 103% | 100% | 95% | 97.6%
9 | NS(=O)(=O)c1ccc(NC(=O)Cc2ccccc2)cc1 [4-(2-Phenylacetamido)Benzenesulfonamide] | 92.1% | 99.1% | 105% | 105% | 107% | 87.8% | 108% | 95.9% | 102% | 96.9% | 97.5% | 102% | 108% | 109% | 107% | 89.8% | 105% | 109% | 99% | 87.8%
10 | NCc1ccc(S(N)(=O)=O)cc1 [4-Homosulfanilamide] | 97.9% | 93.1% | 96.3% | 100% | 98.1% | 107% | 101% | 106% | 96% | 92.3% | 97% | 96.1% | 98.3% | 99.8% | 100% | 98.5% | 92.5% | 105% | 96.2% | 99.5%
